According to patent publication US7375109B2, “Glycine-substituted thieno[2,3-d]pyrimidines with combined LH and FSH agonistic activity” (N.V. Organon, priority 2001, dated 2008):

What was measured:
[1] = molecular target: T1, human LH receptor (Homo sapiens, UniProt P22888); test: CHO-LH in vitro bioactivity (CRE-luciferase reporter); format: cell-based; details: CHO cells stably transfected with human LH receptor
T1 construct: expressed in transfected cells; host or cells: Chinese Hamster Ovary (CHO) cells, stably transfected; cotransfected with CRE-luciferase reporter
Method: (§1) It has been shown that compounds of the above mentioned formula I show agonistic LH and FSH activity. […] Typically the FSH activity ranges from an activity of about 0.1% of the LH agonist stimulation to about 10% of the LH agonist stimulation.
(§2) LH agonistic activity of compounds were tested in Chinese Hamster Ovary (CHO) cells stably transfected with the human LH receptor and cotransfected with a cAMP responsive element (CRE)/promotor directing the expression of a firefly luciferase reporter gene. Binding of ligand to the Gs-coupled LH receptor will result in an increase of cAMP, which in turn will induce an increased transactivation of the luciferase reporter construct. The luciferase signal was quantified using a luminescence counter. For test compounds, EC50 values (concentration of test compound causing half-maximal (50%) stimulation) were calculated. For that purpose the software program GraphPad PRISM, version 3.0 (GraphPad software Inc., San Diego) was used.

[2] = molecular target: T2, human FSH receptor (Homo sapiens, UniProt P23945); test: CHO-FSH in vitro bioactivity (CRE-luciferase reporter); format: cell-based; details: CHO cells transfected with human FSH receptor and luciferase reporter gene
T2 construct: expressed in transfected cells; host or cells: CHO cells transfected with human FSH receptor and CRE-luciferase reporter
T2 sequence (P23945 18-695): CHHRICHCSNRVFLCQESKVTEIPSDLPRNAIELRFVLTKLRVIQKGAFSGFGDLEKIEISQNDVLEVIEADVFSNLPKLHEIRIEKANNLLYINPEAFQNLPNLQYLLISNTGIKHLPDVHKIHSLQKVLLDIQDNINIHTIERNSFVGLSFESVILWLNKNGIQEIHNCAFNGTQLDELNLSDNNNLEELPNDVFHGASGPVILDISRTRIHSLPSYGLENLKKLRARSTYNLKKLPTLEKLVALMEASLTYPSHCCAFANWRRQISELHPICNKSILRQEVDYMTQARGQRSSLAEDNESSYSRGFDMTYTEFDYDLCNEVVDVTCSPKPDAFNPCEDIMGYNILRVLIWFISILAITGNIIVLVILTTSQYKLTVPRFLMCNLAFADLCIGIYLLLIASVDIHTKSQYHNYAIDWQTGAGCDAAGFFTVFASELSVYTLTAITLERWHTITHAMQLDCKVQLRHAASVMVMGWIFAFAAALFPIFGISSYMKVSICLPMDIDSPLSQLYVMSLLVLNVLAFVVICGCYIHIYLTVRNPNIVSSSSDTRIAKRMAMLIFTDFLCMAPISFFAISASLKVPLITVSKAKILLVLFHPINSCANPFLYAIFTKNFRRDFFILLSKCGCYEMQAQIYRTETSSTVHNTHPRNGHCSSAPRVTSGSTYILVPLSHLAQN
Method: as §1, §2
In a similar way FSH agonistic activity of compounds were tested in CHO cells transfected with the luciferase reporter gene and the human FSH receptor.

[3] = tested on: immature female mice; test: In vivo bioactivity: ovulation induction in immature mice; details: immature female mice primed with urinary FSH (Humegon 12.5 IU/animal); 50 mg/kg about 48 hours later; killed 24 hours after treatment
Method: To measure LH in vivo activity of compounds, ovulation induction in immature mice can be studied. In this assay immature female mice are primed with urinary FSH and approximately 48 hours later treated with a LH agonistic compound. The animals are killed after LH agonist treatment and the number of ova in the oviduct is microscopically assessed.
To measure in vivo activity of LH/FSH receptor agonistic compounds ovulation induction in immature mice were studied. In this assay immature female mice were primed with urinary FSH (Humegon 12.5 IU/animal). Approximately 48 hours later the animals were treated with a LH/FSH agonistic compound, the preparation of which is described in examples 1, 4, 9 and 17, at a dose-level of 50 mg/kg. The animals were killed 24 hours after LH/FSH agonist treatment and the number of ova in the oviduct was microscopically assessed. On average 10-15 animals were tested. The mean number of ova amounted 8 with the exception of the compound of example 17 (which was 0.4).

T1 sequence (P22888 27-699): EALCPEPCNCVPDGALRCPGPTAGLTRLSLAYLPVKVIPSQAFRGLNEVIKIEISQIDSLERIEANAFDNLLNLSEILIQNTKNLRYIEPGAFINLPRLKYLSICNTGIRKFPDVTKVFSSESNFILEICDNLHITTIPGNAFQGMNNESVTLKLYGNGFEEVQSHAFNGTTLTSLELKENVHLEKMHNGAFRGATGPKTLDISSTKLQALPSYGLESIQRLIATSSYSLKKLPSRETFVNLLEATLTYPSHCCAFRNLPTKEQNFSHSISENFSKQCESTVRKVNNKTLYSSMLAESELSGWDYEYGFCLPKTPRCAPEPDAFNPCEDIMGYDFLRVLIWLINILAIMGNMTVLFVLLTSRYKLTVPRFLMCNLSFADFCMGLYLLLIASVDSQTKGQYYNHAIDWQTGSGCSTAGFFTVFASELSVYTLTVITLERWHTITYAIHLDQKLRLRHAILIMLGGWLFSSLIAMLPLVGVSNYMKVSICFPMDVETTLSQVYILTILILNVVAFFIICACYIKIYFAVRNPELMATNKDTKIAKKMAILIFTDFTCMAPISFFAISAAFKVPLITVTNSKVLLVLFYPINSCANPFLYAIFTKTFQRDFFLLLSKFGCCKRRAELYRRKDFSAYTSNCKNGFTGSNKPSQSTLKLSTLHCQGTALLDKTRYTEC

Row | EC50 [1] | EC50 [2] | SMILES | mean number of ova in the oviduct [3]
1 | 7 nM | 101 nM | CCN(CCOC)CC(=O)Nc1cccc(-c2nc(SC)nc3sc(C(=O)NC(C)(C)C)c(N)c23)c1 [Example 4, tert-Butyl 5-amino-2-methylthio-4-(3-((N-ethyl-N-(2-methoxyethyl)-glycinyl)-amino)-phenyl)-thieno[2,3-d]pyrimidine-6-carboxamide] | 8
2 | 4.82 nM | 606 nM | CCN(CCO)CC(=O)Nc1cccc(-c2nc(-c3ccccc3)nc3sc(C(=O)NC(C)(C)C)c(N)c23)c1 [Example 9, tert-Butyl 5-amino-2-phenyl-4-(3-((N-ethyl-N-(2-hydroxyethyl)-glycinyl)-amino)-phenyl)-thieno[2,3-d]pyrimidine-6-carboxamide] | 8
3 | 2.73 nM | 56.9 nM | CSc1nc(-c2cccc(NC(=O)CN(C)CCO)c2)c2c(N)c(C(=O)NC(C)(C)C)sc2n1 [Example 1, tert-Butyl 5-amino-2-methylthio-4-(3-((N-methyl-N-(2-hydroxyethyl)-glycinyl)-amino)-phenyl)-thieno[2,3-d]pyrimidine-6-carboxamide] | 8
